One experiment addresses T1, NMDAR1C - NMDAR2A (Rattus norvegicus, UniProt P35439+Q00959).
T1 construct: expressed in transfected cells; host or cells: Xenopus laevis oocytes injected with in vitro transcribed mRNA (1:1 mixture)
As to the kind of experiment: Electrophysiology on recombinant NMDA receptors expressed in oocytes. It is filed as cell-based. To be noted: Xenopus laevis oocytes, voltage clamp -80 mV; 70 µM Asp plus 2.5 µM Gly; read-out: Electrophysiology/IC50 (µM) oocytes NMDAR 1C & 2A. An excerpt: (§1) Electrophysiology on recombinant NMDA receptors.
(§2) cDNA clones coding for the subunits NMDAR1C and NMDAR2A of the NMDA receptor (see Hollmann and Heinemann, 1994, Annu. Rev. Neurosci. 17: 31 for nomenclature of NMDA receptor subunits) were isolated from a rat brain λgt11 cDNA library as published elsewhere (Sigel et al., 1994, J. Biol. Chem. 269:8204). The clone for the subunit NMDAR2B of the rat brain NMDA receptor was obtained from S.Nakanishi (Kyoto, Japan). The cDNAs were transcribed, capped and poly(A^+)-tailed as described previously (Malherbe et al., 1990, Mol. Brain Res. 8: 199). Oocytes of South African frogs (Xenopus laevis) were used for expressing either a combination of the NMDAR1C and NMDAR2A subunits or the NMDAR1C and NMDAR2B subunits. Approximately 3 fmol of a 1:1 mixture of the respective mRNA species were injected into every oocyte. Four to five days later the ion current through the NMDA receptor channels was measured in voltage clamp experiments (see Methfessel et al., 1986, Pflügers Arch. 407: 577 for the methods of oocyte expression and voltage-clamping). The membrane potential was clamped to -80 mV and the receptors were activated by applying a modified Ringer's solution containing the agonists L-asparatate (Asp) and glycine (Gly). Different agonist concentrations were chosen for either subunit combination to account for the different agonist sensitivities of the two types of receptors (70 µM Asp plus 2.5 µM Gly for NMDAR1C - NMDAR2A and 15 µM Asp plus 0.2 µM Gly for NMDAR1C - NMDAR2B). The agonists were applied for 15 s intervals once every 2.5 min by rapid superfusion of the oocyte. After a series of initial control stimuli increasing concentrations of the antagonist to be tested were added to both, the basal Ringer's and the agonist containing solution. For the data analysis the amplitude (y) of the agonist-induced current was plotted versus the concentration (x) of the antagonist and the logistic function y =A/[1 +(x/IC50)^H ] [formula] was fitted to the data to estimate the 50 % inhibitory concentration (IC50). Three to six oocytes were tested for every antagonist and if possible, at least 3 concentrations embracing the IC50 were applied to every oocyte. […] In two other cases a concentration of 0.1 µM produced a slowly increasing block which exceeded 50% after 30 min. […] Figures for the IC50 in all other cases are arithmetic mean values of individual IC50s determined by the logistic curve fits.

Another experiment addresses T2, NMDAR1C - NMDAR2B (Rattus norvegicus, UniProt P35439+Q00960).
T2 construct: expressed in transfected cells; host or cells: Xenopus laevis oocytes injected with in vitro transcribed mRNA (1:1 mixture)
Described as above. It is filed as cell-based. The settings on record: Xenopus laevis oocytes, voltage clamp -80 mV; 15 µM Asp plus 0.2 µM Gly; read-out: Electrophysiology/IC50 (µM) oocytes NMDAR 1C & 2B.
Description: as §1, §2

Another experiment has as its target NMDA receptors. The experiment is described as follows: 3H-MK801 (Dizocilpine) binding in vitro. The settings on record: rat whole brain membranes, 5nM 3H-MK-801, glutamate, glycine and spermidine present. The procedure: 3H-MK801 (Dizocilpine) binding in vitro
The whole brain from 150-200g male rats, without cerebellum and without medulla oblongata was dissected on ice. The tissue was then homogenized with an Ultra-Turrax maximum speed during 30 seconds at 4°C in 50 volumes of cold Tris HCI 50mM, EDTA disodium 10mM, pH=7.4 buffer (wet weight/v). The homogenate was centrifuged at 48'000 x g (20'000 rpm, SS34, Sorvall RC5C) for 10 minutes. The pellet was rehomogenized with the same volume of buffer and the homogenate incubated at 37°C for 10 minutes. After centrifugation as above, the pellet was rehomogenized with the same volume of buffer and frozen at -80°C in 35 ml fractions for at least 16 hours and not more than 2 weeks.
For the binding experiment, the homogenate was centrifuged as above and the pellet was washed 3 times by homogenization in 25 volumes of cold Tris HCl 5mM, pH=7.4 buffer (Ultra-Turrax, maximum speed, 30 seconds) and centrifugation as above. The final pellet was rehomogenized in 25 volumes of buffer (original wet weight) and used as such in the assay. The final concentration of membrane in the assay was 20mg/ml (wet weight).
The incubation was performed in the presence of 1nM glutamate, glycine and spermidine. MK-801, (+)-[3-3H(N)], NEN (NET-972) 20Ci/mmol, was used at 5nM final concentration. Non specific binding was determined in presence of […] TCP. After 2 hours of incubation at room temperature, the suspension was filtered (Whatmann GF/B, soaked in 0.1% polyethylenimine for 2 hours) and washed 5 times with 3 ml of cold Tris HCl 5mM, pH=7.4 buffer. The air-dried filters were counted with 10ml of Ultima-gold (Packard) in a Tri-Carb 2500 TR scintillation counter after agitation.
The DPM were transformed in % of specific binding and these values were treated by a non linear regression calculation program (BINDING, H. Affolter, Switzerland) which provided the IC50 values for the low and high affinity binding sites (= concentrations producing half maximal inhibition at the respective sites). Each experiment was repeated at least three times and the final IC50 values were calculated as the mean +/-standard deviation of the individual experiments.
Reference: R.W. Ransom and N.L. Stec. Journal of Neurochemistry 51, 830-836, 1988.

[1] abbreviates: high affinity binding site, read-out: 3H-MK 801 / IC50 (µM) high.
The mark [2] stands for this setting: low affinity binding site, read-out: 3H-MK 801 / IC50 (µM) low.

Like-named read-outs stand apart in the source and are kept apart here. Some results are limits rather than exact numbers.

T1 sequence (Q00959 23-1464, other chains not shown): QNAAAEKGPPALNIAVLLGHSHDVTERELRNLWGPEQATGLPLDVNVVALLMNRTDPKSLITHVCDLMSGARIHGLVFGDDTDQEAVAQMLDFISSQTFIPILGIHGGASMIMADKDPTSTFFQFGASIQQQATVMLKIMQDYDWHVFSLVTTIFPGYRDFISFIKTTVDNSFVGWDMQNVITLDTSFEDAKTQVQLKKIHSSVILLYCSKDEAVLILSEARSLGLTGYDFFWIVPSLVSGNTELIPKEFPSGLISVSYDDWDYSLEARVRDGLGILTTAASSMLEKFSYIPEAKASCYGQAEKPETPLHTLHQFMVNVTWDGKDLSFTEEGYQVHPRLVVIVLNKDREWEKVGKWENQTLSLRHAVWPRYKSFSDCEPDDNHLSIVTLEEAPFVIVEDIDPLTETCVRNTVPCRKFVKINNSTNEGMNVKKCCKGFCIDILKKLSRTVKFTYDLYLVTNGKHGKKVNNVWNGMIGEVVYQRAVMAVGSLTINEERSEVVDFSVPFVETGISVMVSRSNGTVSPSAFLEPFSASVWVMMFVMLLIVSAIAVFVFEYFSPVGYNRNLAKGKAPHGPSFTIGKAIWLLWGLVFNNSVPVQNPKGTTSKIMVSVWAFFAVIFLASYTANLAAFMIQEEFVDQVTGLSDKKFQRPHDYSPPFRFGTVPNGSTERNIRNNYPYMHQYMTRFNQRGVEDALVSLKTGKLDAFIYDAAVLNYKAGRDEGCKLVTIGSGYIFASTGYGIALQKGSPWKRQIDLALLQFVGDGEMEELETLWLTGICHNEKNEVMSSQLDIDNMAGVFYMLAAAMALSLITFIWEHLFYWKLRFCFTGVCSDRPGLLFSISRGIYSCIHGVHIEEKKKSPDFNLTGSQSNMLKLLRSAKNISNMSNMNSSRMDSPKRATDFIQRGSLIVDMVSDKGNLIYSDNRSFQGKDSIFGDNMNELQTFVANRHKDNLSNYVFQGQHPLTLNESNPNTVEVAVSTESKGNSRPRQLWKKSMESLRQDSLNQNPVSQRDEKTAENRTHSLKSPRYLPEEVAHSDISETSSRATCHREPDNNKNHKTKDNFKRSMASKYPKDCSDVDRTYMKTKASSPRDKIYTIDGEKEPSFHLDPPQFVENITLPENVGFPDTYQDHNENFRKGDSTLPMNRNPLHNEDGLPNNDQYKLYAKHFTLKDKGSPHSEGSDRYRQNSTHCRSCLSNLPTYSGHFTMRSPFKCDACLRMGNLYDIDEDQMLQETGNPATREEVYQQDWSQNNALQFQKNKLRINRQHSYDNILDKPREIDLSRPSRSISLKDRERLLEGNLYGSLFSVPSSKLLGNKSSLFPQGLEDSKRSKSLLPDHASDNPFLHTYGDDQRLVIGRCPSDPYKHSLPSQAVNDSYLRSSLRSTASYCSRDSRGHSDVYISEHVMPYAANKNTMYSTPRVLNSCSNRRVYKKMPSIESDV
T2 sequence (Q00960 27-1482, other chains not shown): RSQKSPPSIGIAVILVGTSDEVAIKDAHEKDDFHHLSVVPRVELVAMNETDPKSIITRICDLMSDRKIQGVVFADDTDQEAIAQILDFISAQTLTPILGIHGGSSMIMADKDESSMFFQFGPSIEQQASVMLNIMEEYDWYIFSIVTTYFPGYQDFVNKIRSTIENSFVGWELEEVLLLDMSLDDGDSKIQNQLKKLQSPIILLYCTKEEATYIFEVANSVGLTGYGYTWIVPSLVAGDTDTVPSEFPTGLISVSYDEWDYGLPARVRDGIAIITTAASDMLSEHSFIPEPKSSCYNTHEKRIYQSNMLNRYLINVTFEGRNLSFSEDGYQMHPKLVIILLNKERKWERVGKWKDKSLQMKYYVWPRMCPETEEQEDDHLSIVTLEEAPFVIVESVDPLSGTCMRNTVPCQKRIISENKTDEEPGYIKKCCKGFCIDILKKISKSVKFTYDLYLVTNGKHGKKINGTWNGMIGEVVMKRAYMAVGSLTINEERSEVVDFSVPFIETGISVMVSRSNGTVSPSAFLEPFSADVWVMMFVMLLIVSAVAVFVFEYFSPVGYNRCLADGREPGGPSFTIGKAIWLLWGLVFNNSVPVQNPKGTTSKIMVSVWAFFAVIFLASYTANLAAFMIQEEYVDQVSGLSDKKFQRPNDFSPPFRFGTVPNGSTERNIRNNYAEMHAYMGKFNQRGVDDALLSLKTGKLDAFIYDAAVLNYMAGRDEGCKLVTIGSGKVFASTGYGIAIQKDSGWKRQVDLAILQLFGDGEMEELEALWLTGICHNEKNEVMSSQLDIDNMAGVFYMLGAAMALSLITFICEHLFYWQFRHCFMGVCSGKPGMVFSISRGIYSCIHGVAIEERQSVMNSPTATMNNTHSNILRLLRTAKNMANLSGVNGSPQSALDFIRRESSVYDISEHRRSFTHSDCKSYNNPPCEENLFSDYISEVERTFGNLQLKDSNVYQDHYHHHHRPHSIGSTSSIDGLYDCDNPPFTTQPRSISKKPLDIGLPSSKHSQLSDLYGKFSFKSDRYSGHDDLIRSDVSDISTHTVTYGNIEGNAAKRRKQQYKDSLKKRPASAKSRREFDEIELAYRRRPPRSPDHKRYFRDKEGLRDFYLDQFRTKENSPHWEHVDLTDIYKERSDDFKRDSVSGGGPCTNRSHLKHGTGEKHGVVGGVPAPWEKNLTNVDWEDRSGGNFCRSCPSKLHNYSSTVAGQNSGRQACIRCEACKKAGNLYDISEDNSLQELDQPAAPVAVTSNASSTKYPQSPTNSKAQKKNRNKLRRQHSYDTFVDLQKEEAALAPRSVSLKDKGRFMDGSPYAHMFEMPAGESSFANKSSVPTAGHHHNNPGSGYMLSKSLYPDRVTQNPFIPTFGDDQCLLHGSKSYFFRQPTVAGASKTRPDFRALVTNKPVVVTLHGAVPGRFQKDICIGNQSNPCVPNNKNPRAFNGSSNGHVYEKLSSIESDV

Turning to `COc1cc2c(cc1OC)C(CC(O)c1ccc(Cl)cc1)N(C)CC2` (single isomer, unassigned) [C, 1-(4-Chloro-phenyl)-2-(6,7-dimethoxy-2-methyl-1,2,3,4-tetrahydroisoquinolin-1-yl)-ethanol], the IC50 is more than 20 µM on NMDAR1C - NMDAR2A, 0.043 µM at NMDAR1C - NMDAR2B, 0.12 µM at NMDA receptors (setting [1]) and 191 µM at NMDA receptors (setting [2]).

In the case of `COc1cc2c(cc1OC)C(CC(O)c1ccc(Cl)cc1)N(C)CC2` (single isomer, unassigned) [V], the IC50 at NMDA receptors (setting [1]) turned out to be 2.9 µM; on NMDA receptors (setting [2]) it was 110 µM.

Consider `COc1cc2c(cc1OC)C(CC(O)c1ccc(C)cc1)N(C)CC2` (stereo not shown) [A, 2-(6,7-Dimethoxy-2-methyl-1,2,3,4-tetrahydroisoquinolin-1-yl)-1-p-tolyl-ethanol], for which the IC50 is more than 100 µM at NMDAR1C - NMDAR2A, not above 0.1 µM on NMDAR1C - NMDAR2B, 0.04 µM at NMDA receptors (setting [1]) and 223 µM on NMDA receptors (setting [2]).

For the molecule `COc1cc2c(cc1OC)C(CCc1ccc(Cl)c(Cl)c1)N(C)CC2` (stereo not shown) [AA], the IC50 at NMDA receptors (setting [1]) stood at 4.62 µM; on NMDA receptors (setting [2]) it was 185 µM.

Regarding `COc1cc2c(cc1O)C(CCc1ccc(Cl)cc1)N(C)CC2` (stereo not shown) [B, 1-[2-(4-Chloro-phenyl)-ethyl]-6-methoxy-2-methyl-1,2,3,4-tetrahydroisoquinolin-7-ol], the IC50 stood at 0.09 µM on NMDA receptors (setting [1]) and 54 µM at NMDA receptors (setting [2]).

Regarding `CN1CCc2cc(O)c(O)cc2C1CCc1ccc(Cl)cc1` (stereo not shown) [D, 1-[2-(4-Chloro-phenyl)-ethyl] -2-methyl-1,2,3,4-tetrahydro-isoquinoline-6,7-diol], the IC50 at NMDAR1C - NMDAR2A is 19 µM; at NMDAR1C - NMDAR2B it was 0.28 µM; on NMDA receptors (setting [1]), 0.29 µM; on NMDA receptors (setting [2]), 116 µM.

On to `COc1cc2c(cc1OC)C(CCc1ccc(C)cc1)N(C)CC2` (stereo not shown) [E, 6,7-Dimethoxy-2-methyl-1-(2-p-tolyl-ethyl)-1,2,3,4-tetrahydroisoquinoline], for which the IC50 on NMDA receptors (setting [1]) is 0.34 µM; at NMDA receptors (setting [2]), 129 µM.

Turning to `COc1cc2c(cc1OC)C(CCc1ccc(Cl)cc1)N(C)C1CCCCC21` (stereo not shown) [F, 6-[2-(4-Chloro-phenyl)-ethyl]-8,9-dimethoxy-5-methyl-1,2,3,4,4a,5,6,10b-octahydro-phenanthridine], the IC50 was more than 30 µM at NMDAR1C - NMDAR2A, less than 0.1 µM on NMDAR1C - NMDAR2B, 0.4 µM at NMDA receptors (setting [1]) and 315 µM at NMDA receptors (setting [2]).

Take `COc1cc2c(cc1OC)C(CC(O)c1ccc([N+](=O)[O-])cc1)N(C)CC2` (stereo not shown) [G, 2-(6,7-Dimethoxy-2-methyl-1,2,3,4-tetrahydroisoquinolin-1-yl)-1-(4-nitrophenyl)-ethanol]: the IC50 came out at 0.46 µM at NMDA receptors (setting [1]) and 87 µM at NMDA receptors (setting [2]).

Take `COc1cc2c(cc1OC)C1CCCCC1NC2CCc1ccc(Cl)cc1` (stereo not shown) [H, 6-[2-(4-Chloro-phenyl)-ethyl]-8,9,dimethoxy-1,2,3,4,4a,5,6,10b-octahydrophenanthridine]: the IC50 on NMDA receptors (setting [1]) came to 0.5 µM; on NMDA receptors (setting [2]), 589 µM.

In the case of `COc1ccc(C(O)CC2c3cc(OC)c(OC)cc3CCN2C)cc1` (stereo not shown) [I], the IC50 was found to be 0.59 µM on NMDA receptors (setting [1]) and 146 µM on NMDA receptors (setting [2]).

`COc1cc2c(cc1OC)C(CC(O)c1cc(Cl)c(Cl)cc1Cl)N(C)CC2` (stereo not shown) [K]: the IC50 at NMDA receptors (setting [1]) stood at 0.91 µM; at NMDA receptors (setting [2]), 613 µM.

As for `COc1cc2c(cc1OC)C(CCc1ccc(Br)cc1)N(C)CC2` (stereo not shown) [L], the IC50 at NMDA receptors (setting [1]) is 1.37 µM; at NMDA receptors (setting [2]) it was 198 µM.

On to `COc1ccc(CCC2c3cc(OC)c(OC)cc3CCN2C)cc1` (stereo not shown) [M], for which the IC50 on NMDA receptors (setting [1]) is 1.39 µM; at NMDA receptors (setting [2]), 95 µM.

For `COc1cc2c(cc1OC)C(CCc1ccc(C(C)C)cc1)N(C)CC2` (stereo not shown) [N], the IC50 at NMDA receptors (setting [1]) was 1.59 µM; at NMDA receptors (setting [2]), 370 µM.

As to `COc1cc2c(cc1OC)C(CCc1ccc([N+](=O)[O-])cc1)N(C)CC2` (stereo not shown) [O], the figures for the IC50 on NMDA receptors (setting [1]) and on NMDA receptors (setting [2]) were 1.6 µM and 101 µM, respectively.

For `CN1CCc2cc3c(cc2C1CCc1ccc(Cl)cc1)OCO3` (stereo not shown) [P], the IC50 came out at 1.7 µM at NMDA receptors (setting [1]) and 95 µM at NMDA receptors (setting [2]).

For the molecule `COc1cc2c(cc1OC)C(CC(OC(C)=O)c1ccc(Cl)cc1)N(C)CC2` (stereo not shown) [Q], the IC50 at NMDAR1C - NMDAR2A turned out to be 21 µM; at NMDAR1C - NMDAR2B it was 1.2 µM; on NMDA receptors (setting [1]) it was 1.76 µM; at NMDA receptors (setting [2]) it was 161 µM.

Turning to `COc1cc2c(cc1OC)C(CCc1ccccc1)N(C)CC2` (stereo not shown) [R], the IC50 on NMDA receptors (setting [1]) came out at 2.1 µM; at NMDA receptors (setting [2]) it was 147 µM.

Regarding `CCC(=O)OC(CC1c2cc(OC)c(OC)cc2CCN1C)c1ccc(Cl)cc1` (stereo not shown) [S], the IC50 turned out to be 2.18 µM at NMDA receptors (setting [1]) and 123 µM on NMDA receptors (setting [2]).

For the molecule `CN1CCc2cc(O)c(O)cc2C1CCc1ccc(Cl)c(Cl)c1` (stereo not shown) [T], the IC50 on NMDA receptors (setting [1]) was determined as 2.31 µM; at NMDA receptors (setting [2]), 56 µM.

On to `COc1cc2c(cc1OC)C(CCc1ccc([N+](=O)[O-])cc1)N(C)CC2` (stereo not shown) [U], for which the IC50 is 2.71 µM at NMDA receptors (setting [1]) and 87 µM on NMDA receptors (setting [2]).

`COc1ccc2c(c1OC)CCN(C)C2CCc1ccc(Cl)cc1` (stereo not shown) [W]: the IC50 at NMDA receptors (setting [1]) came out at 3.6 µM; on NMDA receptors (setting [2]) it was 129 µM.

`Cc1cc2c(cc1C)C(CCc1ccc(Cl)cc1)N(C)C(C)C2` (stereo not shown) [X]: the IC50 turned out to be 3.87 µM at NMDA receptors (setting [1]) and 2230 µM at NMDA receptors (setting [2]).

Source of the values: patent publication EP0787493A1, “Tetrahydroisoquinoline derivatives” (priority 1996, dated 1997).
